Reference: patent publication US20240374524A1, “INCREASING PERMEATION FOR PRE-GASTRIC ABSORPTION OF ACTIVE PHARMACEUTICAL INGREDIENTS” (Catalent U.K. Swindon Zydis Limited, priority 2023, published 2024)
Values after ≈ are worked out from the molar mass of the structure shown. “Also recorded” adds a separate entry of the source. Read-outs that look alike come from different tables or passages of the source. Blank lines part the entries; values can stand above or below the compound they belong to.

Experiments:
[1] = cited from earlier work; for HLB value: hydrophilic-lipophilic balance of surfactant
TR146 buccal cell line [2] = test: Permeability of Atenolol/permeation agent binary mixes (Table 11), TR146 cells on Transwell inserts; conditions: surfactants 1:1 molar ratio, PF127 and bile salt 2×CMC, citric acid 0.37-1 mg/ml
TR146 buccal cell line [3] = test: Pre-formulation permeability of Carvedilol/permeation agent binary mixes, TR146 cells on Transwell inserts
TR146 buccal cell line [4] = test: Pre-formulation permeability of Piroxicam & permeation agent binary mixtures, TR146 cells on Transwell inserts; conditions: for % Cumulative Permeability (n = 3) 1 min / % Cumulative Permeability (n = 3) 2 min / % Cumulative Permeability (n = 3) 5 min / % Cumulative Permeability (n = 3) 15 min / % Cumulative Permeability (n = 3) 20 min / % Cumulative Permeability (n = 3) 30 min: Piroxicam 0.35 mg in donor
TR146 buccal cell line [5] = test: Permeability of Famotidine/permeation agent binary mixes, TR146 cells on Transwell inserts
TR146 buccal cell line [6] = test: Permeability of reconstituted Piroxicam freeze-dried ODT, TR146 cells on Transwell inserts; assay type: in vitro ADME
[7] = Theoretical percent ionized and un-ionized API at sample pH (Henderson-Hasselbach equation); assay type: physicochemical; conditions: for Calculated % ionized / Calculated % unionized: Piroxicam at sample pH
[8] = Measured pH of API/permeation agent mixtures and of dispersed ODTs; assay type: physicochemical
TR146 buccal cell line [9] = conditions: human, 1.74 mg/ml, pH 7
[10] = Physicochemical properties of model APIs and permeation agents (solubility, log P, pKa, HLB)
[11] = agent at 1:1 molar ratio to Piroxicam, CA after 20 and 30 minutes
[12] = agent at 1:1 molar ratio to Piroxicam, at 30 minutes
[13] = Piroxicam 0.7 mg/ml binary mixtures in distilled water, ^a after adjustment with 0.1M HCl

- % Cumulative Permeability (n = 3) 1 min (TR146 buccal cell line [4]): 0.13%
- % Cumulative Permeability (n = 3) 2 min (TR146 buccal cell line [4]): 0.41%
- % Cumulative Permeability (n = 3) 5 min (TR146 buccal cell line [4]): 1.60%
- % Cumulative Permeability (n = 3) 15 min (TR146 buccal cell line [4]): 5.88%
- % Cumulative Permeability (n = 3) 20 min (TR146 buccal cell line [4]): 7.91%
- % Cumulative Permeability (n = 3) 30 min (TR146 buccal cell line [4]): 11.24%
- Calculated % ionized [7]: 97.20%
- Calculated % unionized [7]: 2.80%
- pH [8, 13]: 6.64
Compound: CN1C(C(=O)Nc2ccccn2)=C(O)c2ccccc2S1(=O)=O [Sample 3PXM, Piroxicam]

- effect on Piroxicam permeability vs control (TR146 buccal cell line [4]; [11]): significantly reduced
Compound: CCCCCCCCCC(=O)O [capric acid, Capric acid]

- effect on Piroxicam permeability (TR146 buccal cell line [4]; 1:3 and 1:6 molar ratios Piroxicam to counterion): no significant enhancement
- pKa [10]: ≥ 5
Compound: NCCCC[C@H](N)C(=O)O [lysine, Lysine]

- effect on Piroxicam permeability vs control (TR146 buccal cell line [4]; [11]): increased
- fold increase in Piroxicam percentage cumulative permeability vs control (TR146 buccal cell line [4]; [12]): 2.1 fold
- percentage cumulative permeability of Piroxicam (TR146 buccal cell line [4]; [12]): 20.82%
Compound: POE-(4)-sorbitan monolaurate [Tween 21]
- effect on Famotidine permeability vs control (TR146 buccal cell line [5]): Neither PF127 nor Tween 21 showed an enhancement; also recorded: no increase in Famotidine permeability was observed

- fold increase in Famotidine permeability vs control (TR146 buccal cell line [5]; 1:1 molar ratio, time not stated): 2 fold
Compound: Sorbitan monooleate [Span 80]
- effect on Piroxicam permeability vs control (TR146 buccal cell line [4]; [11]): reduce the Piroxicam permeability significantly

Continued, compound first:

Compound: COc1ccccc1OCCNCC(O)COc1cccc2[nH]c3ccccc3c12 (stereo not shown) [Carvedilol]
- water solubility [1]: 4.44 µg/mL (≈ 10.9 µM)

Compound: CCCCCCCCCCCCO[C@@H]1O[C@H](CO)[C@@H](O[C@H]2O[C@H](CO)[C@@H](O)[C@H](O)[C@H]2O)[C@H](O)[C@H]1O [DDM, Dodecyl-B-D-Maltoside]
- effect on Atenolol permeability vs control (TR146 buccal cell line [2]): no statistically significant difference
- effect on Carvedilol permeability vs control (TR146 buccal cell line [3]; PF127 at 2×CMC, other surfactants at 1:1 molar ratio): No significant effect
- effect on Piroxicam permeability vs control (TR146 buccal cell line [4]; [11]): increased
- fold increase in Piroxicam percentage cumulative permeability vs control (TR146 buccal cell line [4]; [12]): 2.6 fold
- percentage cumulative permeability of Piroxicam (TR146 buccal cell line [4]; [12]): 25.60%
- difference in Famotidine permeability vs control (TR146 buccal cell line [5]; 1:1 molar ratio, at the 20 and 30 minute marks): no significant difference
- fold increase in Famotidine permeability vs control (TR146 buccal cell line [5]; 1:1 molar ratio, first 5 through 15 minutes): 3 fold
- HLB value [1]: 13.5

Compound: CN1C(C(=O)Nc2ccccn2)=C(O)c2ccccc2S1(=O)=O [Piroxicam]
- pKa [1]: 5.1
- water solubility [1]: 143 µg/mL (≈ 432 µM)

Compound: CCCCCCCCCCCCOS(=O)(=O)[O-].[Na+] [SLS, Sodium Lauryl Sulfate]
- effect on Atenolol permeability vs control (TR146 buccal cell line [2]): non-statistically significant increase
- effect on permeability of Piroxicam ODT vs control (TR146 buccal cell line [6]; 0.69% w/w and 3.49% w/w (PXM:SLS 5:1 and 1:1)): increased
- permeability of 3.49% w/w sample compared to 0.69% w/w sample (TR146 buccal cell line [6]; Piroxicam ODT): marginally higher but statistically significant increase
- effect on Piroxicam permeability vs control (TR146 buccal cell line [4]; [11]): increased
- HLB value [1]: 40

Compound: CC(C)NCC(O)COc1ccc(CC(N)=O)cc1 (stereo not shown) [Sample 1ATL, Atenolol]
- % ionised ([7]; Atenolol at sample pH): 9.48%
- % unionised ([7]; Atenolol at sample pH): 90.52%
- pH ([8]; Atenolol 1.74 mg/ml binary mixes in distilled water, ^a after 0.1M NaOH): 10.58
- pH ([8]; measured pH of Atenolol (1.74 mg/ml)/permeation agent mixture in distilled water): 10.58

Compound: COc1ccccc1OCCNCC(O)COc1cccc2[nH]c3ccccc3c12 (stereo not shown) [Sample 1CAV, Carvedilol]
- Calculated % ionised ([7]; Carvedilol at sample pH): 86.32%
- Calculated % unionised ([7]; Carvedilol at sample pH): 13.68%
- pH ([8]; Carvedilol 1.74 mg/ml binary mixes in water, ^a after 0.1M NaOH, ^b after 0.1M HCL): 7
- % Cumulative Permeability (n = 3) 1 min (TR146 buccal cell line [9]; 1 min): 0.02%
- % Cumulative Permeability (n = 3) 2 min (TR146 buccal cell line [9]; 2 min): 0.03%
- % Cumulative Permeability (n = 3) 5 min (TR146 buccal cell line [9]; 5 min): 0.03%
- % Cumulative Permeability (n = 3) 15 min (TR146 buccal cell line [9]; 15 min): 0.10%
- % Cumulative Permeability (n = 3) 20 min (TR146 buccal cell line [9]; 20 min): 0.13%
- % Cumulative Permeability (n = 3) 30 min (TR146 buccal cell line [9]; 30 min): 0.18%

Compound: NC(N)=Nc1nc(CSCCC(N)=NS(N)(=O)=O)cs1 [Sample 1FAM, Famotidine]
- Calculated % ionised ([7]; Famotidine at sample pH): 1.53%
- Calculated % unionised ([7]; Famotidine at sample pH): 98.47%
- % Cumulative Permeability (n = 3) 1 min (TR146 buccal cell line [5]; Famotidine […], 0.5 ml in donor, 1 min): 0.32%
- % Cumulative Permeability (n = 3) 2 min (TR146 buccal cell line [5]; Famotidine […], 0.5 ml in donor, 2 min): 0.84%
- % Cumulative Permeability (n = 3) 5 min (TR146 buccal cell line [5]; Famotidine […], 0.5 ml in donor, 5 min): 2.09%
- % Cumulative Permeability (n = 3) 15 min (TR146 buccal cell line [5]; Famotidine […], 0.5 ml in donor, 15 min): 7.81%
- % Cumulative Permeability (n = 3) 20 min (TR146 buccal cell line [5]; Famotidine […], 0.5 ml in donor, 20 min): 11.76%
- % Cumulative Permeability (n = 3) 30 min (TR146 buccal cell line [5]; Famotidine […], 0.5 ml in donor, 30 min): 19.98%

Compound: CN1C(C(=O)Nc2ccccn2)=C(O)c2ccccc2S1(=O)=O [Sample 1PXM, Piroxicam]
- % Cumulative Permeability (n = 3) 1 min (TR146 buccal cell line [4]): 0.08%
- % Cumulative Permeability (n = 3) 2 min (TR146 buccal cell line [4]): 0.24%
- % Cumulative Permeability (n = 3) 5 min (TR146 buccal cell line [4]): 0.96%
- % Cumulative Permeability (n = 3) 15 min (TR146 buccal cell line [4]): 3.82%
- % Cumulative Permeability (n = 3) 20 min (TR146 buccal cell line [4]): 5.89%
- % Cumulative Permeability (n = 3) 30 min (TR146 buccal cell line [4]): 9.96%
- Calculated % ionized [7]: 61.31%
- Calculated % unionized [7]: 38.69%
- pH [8, 13]: 5.30

Compound: C[C@H](CCC(=O)[O-])[C@H]1CC[C@H]2[C@@H]3[C@H](O)C[C@@H]4C[C@H](O)CC[C@]4(C)[C@H]3C[C@H](O)[C@]12C.O.[Na+] [sodium cholate hydrate, Sodium Cholate hydrate]
- effect on Atenolol permeability vs control (TR146 buccal cell line [2]): no statistical difference
- effect on permeability of Piroxicam in ODT (TR146 buccal cell line [6]; […] w/w, 0.5×CMC in aqueous dispersion): only slightly increased
- fold increase in Carvedilol percentage cumulative permeability vs control (TR146 buccal cell line [3]; at/after 30 minutes): ~2 fold
- percentage cumulative permeability of Piroxicam (TR146 buccal cell line [4]; agent at 1×CMC, at 30 minutes): 39.52%
- percentage cumulative permeability of Piroxicam (TR146 buccal cell line [4]; agent at 2×CMC, at 30 minutes): 14.44%
- effect on Piroxicam permeability vs control (TR146 buccal cell line [4]; bile salt at 0.5 CMC): slight, statistically non-significant increase
- fold increase in Piroxicam permeability vs control (TR146 buccal cell line [4]; bile salt at 1 CMC, at 30 minutes): 4 fold
- effect on Piroxicam permeability vs control (TR146 buccal cell line [4]; bile salt at 2 CMC, pH-adjusted using citric acid): slight and statistically non-significant
- fold increase in Piroxicam percentage cumulative permeability (TR146 buccal cell line [4]; bile salt at 2 CMC, at the first minute): 1.5 fold
